# According to ChEMBL document CHEMBL1155149, “In vitro activities of 15 antimicrobial agents against 110 toxigenic clostridium difficile clinical isolates collected from 1983 to 2004” (2007):
# Tested on: Clostridioides difficile
# Test: Antimicrobial activity against Clostridium difficile clinical isolates by agar dilution method
# Assay type: functional
SMILES,MIC50 [µg/mL],MIC90 [µg/mL]
CN(C)c1cc(NC(=O)CNC(C)(C)C)c(O)c2c1C[C@H]1C[C@H]3[C@H](N(C)C)C(O)=C(C(N)=O)C(=O)[C@@]3(O)C(O)=C1C2=O [TIGECYCLINE],0.125,0.25
C[C@H]1COc2c(N3CCN(C)CC3)c(F)cc3c(=O)c(C(=O)O)cn1c23.C[C@H]1COc2c(N3CCN(C)CC3)c(F)cc3c(=O)c(C(=O)O)cn1c23.O [LEVOFLOXACIN],4,32
CC(=O)Oc1ccccc1C(=O)Nc1ncc([N+](=O)[O-])s1 [NITAZOXANIDE],0.06,0.125
COc1c(N2CCNC(C)C2)c(F)cc2c(=O)c(C(=O)O)cn(C3CC3)c12 (stereo unspecified) [GATIFLOXACIN],1,16
Cc1ncc([N+](=O)[O-])n1CCO [METRONIDAZOLE],0.125,0.25
O=C(Nc1ncc([N+](=O)[O-])s1)c1ccccc1O [TIZOXANIDE],0.06,0.125
CO[C@H]1/C=C/O[C@@]2(C)Oc3c(C)c(O)c4c(O)c(c5c(nc6cc(C)ccn65)c4c3C2=O)NC(=O)/C(C)=C\C=C\[C@H](C)[C@H](O)[C@@H](C)[C@@H](O)[C@@H](C)[C@H](OC(C)=O)[C@@H]1C [RIFAXIMIN],0.0075,0.015
CCc1c(Cl)c(O)c(Cl)c(O)c1C(=O)O[C@H]1[C@H](O)[C@H](OC)[C@H](OC/C2=C\C=C\C[C@H](O)/C(C)=C/[C@H](CC)[C@@H](O[C@@H]3OC(C)(C)[C@@H](OC(=O)C(C)C)[C@H](O)[C@@H]3O)/C(C)=C/C(C)=C/C[C@@H]([C@@H](C)O)OC2=O)O[C@@H]1C [FIDAXOMICIN],0.125,0.125
CCS(=O)(=O)CCn1c([N+](=O)[O-])cnc1C [TINIDAZOLE],0.125,0.25
CN[C@H](CC(C)C)C(=O)N[C@H]1C(=O)N[C@@H](CC(N)=O)C(=O)N[C@H]2C(=O)N[C@H]3C(=O)N[C@H](C(=O)N[C@H](C(=O)O)c4cc(O)cc(O)c4-c4cc3ccc4O)[C@H](O)c3ccc(c(Cl)c3)Oc3cc2cc(c3O[C@@H]2O[C@H](CO)[C@@H](O)[C@H](O)[C@H]2O[C@H]2C[C@](C)(N)[C@H](O)[C@H](C)O2)Oc2ccc(cc2Cl)[C@H]1O [VANCOMYCIN],1,1
C[C@@H](O)[C@H]1C(=O)N2C(C(=O)O)=C(S[C@@H]3CN[C@H](C(=O)N(C)C)C3)[C@H](C)[C@H]12 [MEROPENEM],2,2
C[C@@H](O)[C@H]1C(=O)N2C(C(=O)O)=C(S[C@@H]3CN[C@H](CNS(N)(=O)=O)C3)[C@H](C)[C@H]12 [DORIPENEM],1,2
CO[C@H]1/C=C/O[C@@]2(C)Oc3c(C)c(O)c4c(=O)c(c5oc6cc(N7CCN(CC(C)C)CC7)cc(O)c6nc-5c4c3C2=O)NC(=O)/C(C)=C\C=C\[C@H](C)[C@H](O)[C@@H](C)[C@@H](O)[C@@H](C)[C@H](OC(C)=O)[C@@H]1C [RIFALAZIL],0.0075,0.03
